From ChEMBL document CHEMBL2417443, “Efficient synthesis and antiproliferative activity of novel thioether-substituted flavonoids” (Eur J Med Chem, 2013)

Key:
[1] = test system: HEp-2; experiment: Ratio of 5-fluorouracil IC50 to compound IC50 for human Hep2 cells; assay type: functional
[2] = test system: HeLa; experiment: Ratio of 5-fluorouracil IC50 to compound IC50 for human HeLa cells; assay type: functional
[3] = test system: MCF7; experiment: Ratio of 5-fluorouracil IC50 to compound IC50 for human MCF7 cells; assay type: functional
[4] = Cytotoxicity against human MDA-MB-435S cells after 72 hrs by MTT assay; assay type: functional, cell-based
[5] = test system: SW480; experiment: Cytotoxicity against human SW480 cells after 72 hrs by MTT assay; assay type: functional, cell-based; details: SW480, 72 h
[6] = test system: HeLa; experiment: Cytotoxicity against human HeLa cells after 72 hrs by MTT assay; assay type: functional, cell-based
[7] = test system: HEp-2; experiment: Cytotoxicity against human Hep2 cells after 72 hrs by MTT assay; assay type: functional, cell-based; details: HEp-2, 72 h
[8] = Ratio of 5-fluorouracil IC50 to compound IC50 for human LM7 cells; assay type: functional
[9] = Cytotoxicity against human LM7 cells after 72 hrs by MTT assay; assay type: functional, cell-based; details: LM7, 72 h
[10] = test system: SW480; experiment: Ratio of 5-fluorouracil IC50 to compound IC50 for human SW480 cells; assay type: functional
[11] = Ratio of 5-fluorouracil IC50 to compound IC50 for human MDA-MB-435S cells; assay type: functional
[12] = test system: MCF7; experiment: Cytotoxicity against human MCF7 cells after 72 hrs by MTT assay; assay type: functional, cell-based; details: MCF7, 72 h
[13] = test system: SW480; experiment: Cell cycle arrest in human SW480 cells assessed as accumulation at G2/M phase at 1.2 uM after 48 hrs by propidium iodide staining-based flow cytometry (reference value: 13.99 +/- 0.35%); assay type: functional
[14] = test system: SW480; experiment: Cell cycle arrest in human SW480 cells assessed as accumulation at G2/M phase at 0.8 uM after 48 hrs by propidium iodide staining-based flow cytometry (reference value: 13.99 +/- 0.35%); assay type: functional
[15] = test system: SW480; experiment: Cell cycle arrest in human SW480 cells assessed as accumulation at S phase at 0.8 uM after 48 hrs by propidium iodide staining-based flow cytometry (reference value: 14.01 +/- 0.86%); assay type: functional
[16] = test system: SW480; experiment: Cell cycle arrest in human SW480 cells assessed as accumulation at G2/M phase at 1 uM after 48 hrs by propidium iodide staining-based flow cytometry (reference value: 13.99 +/- 0.35%); assay type: functional
[17] = test system: SW480; experiment: Cell cycle arrest in human SW480 cells assessed as accumulation at S phase at 1.2 uM after 48 hrs by propidium iodide staining-based flow cytometry (reference value: 14.01 +/- 0.86%); assay type: functional
[18] = test system: SW480; experiment: Cell cycle arrest in human SW480 cells assessed as accumulation at G0/G1 phase at 1 uM after 48 hrs by propidium iodide staining-based flow cytometry (reference value: 72.00 +/- 4.30%); assay type: functional
[19] = test system: SW480; experiment: Cell cycle arrest in human SW480 cells assessed as accumulation at G2/M phase after 48 hrs by propidium iodide staining-based flow cytometry; assay type: functional
[20] = test system: SW480; experiment: Cell cycle arrest in human SW480 cells assessed as accumulation at G0/G1 phase at 0.8 uM after 48 hrs by propidium iodide staining-based flow cytometry (reference value: 72.00 +/- 4.30%); assay type: functional
[21] = test system: SW480; experiment: Cell cycle arrest in human SW480 cells assessed as accumulation at S phase at 1 uM after 48 hrs by propidium iodide staining-based flow cytometry (reference value: 14.01 +/- 0.86%); assay type: functional
[22] = test system: SW480; experiment: Cell cycle arrest in human SW480 cells assessed as accumulation at G0/G1 phase at 1.2 uM after 48 hrs by propidium iodide staining-based flow cytometry (reference value: 72.00 +/- 4.30%); assay type: functional

SMILES | Ratio IC50 [1] | Ratio IC50 [2] | Ratio IC50 [3] | IC50 [4] | IC50 [5] | IC50 [6] | IC50 [7] | Ratio IC50 [8] | IC50 [9] | Ratio IC50 [10] | Ratio IC50 [11] | IC50 [12] | other results
Cc1nnc(SCc2coc3ccccc3c2=O)o1 | 33.9 | 0.7 | 0.5 | 1.2 µM | 0.79 µM | 1.4 µM | 3.8 µM | 6.6 | 3.5 µM | 2.3 | 8.3 | 4.6 µM | –
Cc1nnc(SCc2coc3ccccc3c2=O)s1 | 33.9 | 0.7 | 0.5 | 0.63 µM | 1 µM | 2.3 µM | 2.9 µM | 6.6 | 0.43 µM | 2.3 | 8.3 | 6.7 µM | Activity [13]: 38.03%; Activity [14]: 22.03%; Activity [15]: 15.47%; Activity [16]: 26.74%; Activity [17]: 19.13%; Activity [18]: 54.99%; Activity [19]: Dose-dependent effect; Activity [20]: 62.5%; Activity [21]: 18.27%; Activity [22]: 42.84%
O=c1c(CSc2cc(=O)c3ccccc3s2)coc2ccccc12 | 33.9 | 0.7 | 0.5 | 1.7 µM | 3.6 µM | 2.6 µM | 1.4 µM | 6.6 | 2.8 µM | 2.3 | 8.3 | 5.4 µM | –
Cc1nnc(Sc2coc3ccccc3c2=O)s1 | – | – | – | > 50 µM | > 50 µM | > 50 µM | > 50 µM | – | > 50 µM | – | – | > 50 µM | –
Cc1cc(C)n2nc(SCc3nnc(SCc4coc5ccccc5c4=O)s3)nc2n1 | – | – | – | 1.1 µM | 1.5 µM | > 25 µM | 5.3 µM | – | 2.5 µM | – | – | 9.5 µM | –
Cc1cc(C)n2nc(SCc3nnc(SCc4cc(=O)oc5cc(O)cc(C)c45)s3)nc2n1 | – | – | – | > 25 µM | > 25 µM | > 25 µM | > 25 µM | – | > 25 µM | – | – | > 25 µM | –
Cc1cc(C)nc(SCn2cnc3ccccc3c2=O)n1 | – | – | – | > 25 µM | > 25 µM | > 25 µM | > 25 µM | – | > 25 µM | – | – | > 25 µM | –
Cc1cc(C)n2nc(SCc3nnc(SCc4cc(=O)c5ccccc5o4)s3)nc2n1 | – | – | – | > 25 µM | > 25 µM | > 25 µM | > 25 µM | – | > 25 µM | – | – | > 25 µM | –
Nc1nnc(SCc2cc(=O)oc3c2ccc2ccccc23)s1 | – | – | – | > 25 µM | > 25 µM | > 25 µM | > 25 µM | – | > 25 µM | – | – | > 25 µM | –
